Source: patent publication US20260327225A1, “HETEROCYCLIC COMPOUNDS AS TRIGGERING RECEPTOR EXPRESSED ON MYELOID CELLS 2 AGONISTS AND METHODS OF USE” (VIGIL NEUROSCIENCE, INC., priority 2023, published 2026)

Molecular target: T1, human TREM2 (Homo sapiens, UniProt Q9NZC2)
T1 construct: expressed in transfected cells; host or cells: HEK293T-hTREM2 cells (HEK cell line expressing human TREM2 and DAP12)
Experiment: TREM2 agonist potency by cellular phosphorylation of Syk (AlphaLisa) in HEK293T-hTREM2 cells expressing human TREM2 and DAP12
Type: cell-based
Details: HEK293 cells expressing hTREM2 and DAP12; 45 minutes at room temperature; Syk phosphorylation, AlphaLisa; read-out: hTREM2 EC50
Outline: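 HEK293T cells co-expressing human TREM2 and DAP12 were exposed to compound in assay buffer for 45 min at room temperature, then lysed. Phospho-Syk measured by AlphaLisa; % activation fitted with a four-parameter agonist curve to give EC50.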

T1 sequence (Q9NZC2 19-230): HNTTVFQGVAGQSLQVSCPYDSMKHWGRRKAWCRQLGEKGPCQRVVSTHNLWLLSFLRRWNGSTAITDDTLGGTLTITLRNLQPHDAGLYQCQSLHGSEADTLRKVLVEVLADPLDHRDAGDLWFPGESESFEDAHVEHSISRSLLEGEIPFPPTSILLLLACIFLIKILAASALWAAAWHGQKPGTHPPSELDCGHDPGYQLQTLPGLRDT
T1 sequence (O43914 22-113 partner): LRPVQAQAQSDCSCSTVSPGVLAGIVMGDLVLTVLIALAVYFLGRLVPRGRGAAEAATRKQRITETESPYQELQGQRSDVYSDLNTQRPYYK

Cc1nc2nc(N3C[C@@H](C)O[C@@H](c4cnn(C5CC5)c4)C3)nc(-c3ccc(C#N)cc3F)c2nc1C [Example 91, 4-[2-[(2S,6R)-2-(1-cyclopropylpyrazol-4-yl)-6-methyl-morpholin-4-yl]-6,7-dimethylpteridin-4-yl]-3-fluoro-benzonitrile]
EC50: < 100 nM

Cc1nnc(-c2cc3c(C45CC(C(F)(F)F)(C4)C5)nc([C@H]4CCO[C@@H](c5cnn(C6CC6)c5)C4)nc3nc2C)o1 [Example 23, 2-(2-((2R,4S)-2-(1-cyclopropyl-1H-pyrazol-4-yl)tetrahydro-2H-pyran-4-yl)-7-methyl-4-(3-(trifluoromethyl)bicyclo[1.1.1]pentan-1-yl)pyrido[2,3-d]pyrimidin-6-yl)-5-methyl-1,3,4-oxadiazole]
EC50: < 100 nM
